Results from paper PMC7469393, “Binding of 2-(Triazolylthio)acetamides to Metallo-β-lactamase CcrA Determined with NMR” (ACS Omega, 2020).

How the values were obtained:
CcrA [1] = biological target: T1, CcrA (Bacteroides fragilis, UniProt P25910); experiment: 1H, […] HSQC NMR titration, chemical shift perturbation, fast exchange; type: binding
CcrA [2] = biological target: T1, CcrA; experiment: 1H, […] HSQC NMR titration, slow exchange (relative peak intensities); type: binding

T1 sequence (P25910 19-249): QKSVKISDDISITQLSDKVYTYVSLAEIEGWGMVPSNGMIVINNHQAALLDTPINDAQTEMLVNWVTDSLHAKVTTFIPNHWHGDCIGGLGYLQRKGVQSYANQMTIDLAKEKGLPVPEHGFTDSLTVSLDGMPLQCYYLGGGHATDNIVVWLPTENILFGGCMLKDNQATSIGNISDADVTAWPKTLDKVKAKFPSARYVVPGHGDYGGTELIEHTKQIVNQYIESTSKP

SMILES | Kd (CcrA [1]) [µM] | Kd (CcrA [2]) [µM]
O=C(CSc1nnc(-c2ccccc2C(=O)O)[nH]1)Nc1nc2ccccc2s1 [compound 4, 4] | 11 ± 11 | –
O=C(CSc1nnc(-c2ccccc2C(=O)O)[nH]1)Nc1ccccc1 [compound 5, 5] | 34 ± 43 | –
O=C(CSc1nnc(-c2ccccc2C(=O)O)[nH]1)Nc1ccc(Cl)cc1 [compound 6, 6] | – | ~2.3
